Source: ChEMBL document CHEMBL1132710, “Antineoplastic agents. 410. Asymmetric hydroxylation of trans-combretastatin A-4” (1999)
Values after ≈ are worked out from the molar mass of the structure shown.

Columns and labels:
Assay type in all cases: functional
Neisseria gonorrhoeae = assay: Antimicrobial activity against Neisseria gonorrhoeae
NCI-H460 = assay: Compound was evaluated against Human cell line lung-NSC NCI-H460
SK-N-SH = assay: Compound was evaluated against Human cell line neuroblast SK-N-SH
SW-1736 = assay: Compound was evaluated against Human cell line thyroid SW1736
FaDu = assay: Compound was evaluated against Human cell line pharynx FADU
P388 = assay: Compound was evaluated against P388 mouse Leukemia cell line; settings: read-out: ED50 (the source's name)
DU-145 = assay: Compound was evaluated against Human cell line prostate DU-145
KM-20L2 = assay: Compound was evaluated against Human cell line colon KM20L2
SK-MEL-5 = assay: Compound was evaluated against Human cell line melanoma SK-MEL-5
A498 = assay: Compound was evaluated against Human cell line renal A498
BXPC-3 = assay: Compound was evaluated against Human cell line pancreas BXPC-3
OVCAR-3 = assay: Compound was evaluated against Human cell line ovarian OVCAR-3
SF-295 = assay: Compound was evaluated against Human cell line CNS SF-295
Staphylococcus aureus = assay: Antimicrobial activity against Staphylococcus aureus

Row | Structure (SMILES) | MIC (Neisseria gonorrhoeae) | GI50 (NCI-H460) | GI50 (SK-N-SH) | GI50 (SW-1736) | EC50 (P388) | GI50 (DU-145) | GI50 (SK-MEL-5) | GI50 (BXPC-3) | GI50 (OVCAR-3) | MIC (Staphylococcus aureus) | GI50 (FaDu) | GI50 (KM-20L2) | GI50 (A498) | GI50 (SF-295)
1 | COc1ccc(/C=C\c2cc(OC)c(OC)c(OC)c2)cc1OP(=O)([O-])O.[Na+] | 100 ug disk-1 |  |  |  |  |  |  |  |  |  |  |  |  | 
2 | COc1ccc([C@@H](O)Cc2cc(OC)c(OC)c(OC)c2)cc1O |  | 9 µg/mL (≈ 26.9 µM) | > 10 µg/mL | > 10 µg/mL | 32.9 µg/mL (≈ 98.4 µM) | 7.6 µg/mL (≈ 22.7 µM) |  |  |  |  | 4.8 µg/mL (≈ 14.4 µM) |  |  | 
3 | COc1ccc(CCc2cc(OC)c(OC)c(OC)c2)c(O)c1O | 25 ug disk-1 |  |  |  |  |  |  |  |  |  |  |  |  | 
4 | COc1ccc([C@@H](O)[C@H](O)c2cc(OC)c(OC)c(OC)c2)cc1O |  | 4.4 µg/mL (≈ 12.6 µM) | 1.5 µg/mL (≈ 4.28 µM) | 6.1 µg/mL (≈ 17.4 µM) | 19 µg/mL (≈ 54.2 µM) | 3.5 µg/mL (≈ 9.99 µM) | 4.9 µg/mL (≈ 14 µM) | > 10 µg/mL | 4.5 µg/mL (≈ 12.8 µM) |  | 2.1 µg/mL (≈ 5.99 µM) | 8.2 µg/mL (≈ 23.4 µM) | > 10 µg/mL | 5.7 µg/mL (≈ 16.3 µM)
5 | COc1ccc([C@H](O)[C@@H](O)c2cc(OC)c(OC)c(OC)c2)cc1O |  | 2.5 µg/mL (≈ 7.14 µM) | 0.28 µg/mL (≈ 0.799 µM) | 1.8 µg/mL (≈ 5.14 µM) | 2 µg/mL (≈ 5.71 µM) | 2.1 µg/mL (≈ 5.99 µM) | 0.7 µg/mL (≈ 2 µM) | 3.9 µg/mL (≈ 11.1 µM) | 0.38 µg/mL (≈ 1.08 µM) |  | 0.6 µg/mL (≈ 1.71 µM) | 0.52 µg/mL (≈ 1.48 µM) | 0.91 µg/mL (≈ 2.6 µM) | 0.52 µg/mL (≈ 1.48 µM)

Second part, led by results:

Row | MIC (Neisseria gonorrhoeae) | GI50 (NCI-H460) | GI50 (SK-N-SH) | GI50 (SW-1736) | EC50 (P388) | GI50 (DU-145) | GI50 (SK-MEL-5) | GI50 (BXPC-3) | GI50 (OVCAR-3) | MIC (Staphylococcus aureus) | Structure (SMILES) | GI50 (FaDu) | GI50 (KM-20L2) | GI50 (A498) | GI50 (SF-295)
6 | 50 ug disk-1 | 0.00056 µg/mL (≈ 0.00177 µM) | 0.00026 µg/mL (≈ 0.000822 µM) | 0.00071 µg/mL (≈ 0.00224 µM) | 0.00027 µg/mL (≈ 0.000853 µM) | 0.00076 µg/mL (≈ 0.0024 µM) | 0.0002 µg/mL (≈ 0.000632 µM) | 0.39 µg/mL (≈ 1.23 µM) | < 0.001 µg/mL |  | COc1ccc(/C=C\c2cc(OC)c(OC)c(OC)c2)cc1O [COMBRETASTATIN A4] | 0.00065 µg/mL (≈ 0.00205 µM) | 0.061 µg/mL (≈ 0.193 µM) |  | < 0.001 µg/mL
7 | 50 ug disk-1 |  |  |  |  |  |  |  |  | 100 ug disk-1 | COc1ccc(/C=C\c2cc(OC)c(OC)c(OC)c2)c(O)c1O [COMBRETASTATIN A-1] |  |  |  | 
